Assay results published in ChEMBL document CHEMBL1201862, “PubChem BioAssay data set” (2004).
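48-hour exposure; five concentrations; linearly interpolated endpoints. At the GI50, growth is halved.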 Active and inactive are the calls of the source. No stated cut-off is given here; in the data, active = GI50 up to about 1.1 µM and inactive = higher.

Experiments:
Assay in all cases: NCI tumour cell line growth inhibition, 48 h
Malme-3M = test system: Malme-3M
K562 = test system: K562
U-251 = test system: U-251
UACC-62 = test system: UACC-62
A549 = test system: A549
CCRF-CEM = test system: CCRF-CEM
HCC 2998 = test system: HCC 2998
OVCAR-3 = test system: OVCAR-3
HOP-92 = test system: HOP-92
NCI-H226 = test system: NCI-H226
MOLT-4 = test system: MOLT-4
ACHN = test system: ACHN
RPMI-8226 = test system: RPMI-8226
IGROV-1 = test system: IGROV-1
SN12C = test system: SN12C
CAKI-1 = test system: CAKI-1
SK-MEL-5 = test system: SK-MEL-5
NCI-H23 = test system: NCI-H23

Measured: GI50

O=C1c2ccncc2C(=O)c2c(O)ccc(O)c21
inactive: Malme-3M 1.69 µM | K562 10.1 µM | U-251 16 µM | UACC-62 3.12 µM | A549 5.48 µM | CCRF-CEM 4.33 µM | HCC 2998 4.92 µM | OVCAR-3 1.95 µM | HOP-92 17.7 µM | NCI-H226 15.7 µM | MOLT-4 5.89 µM | ACHN 4.27 µM | RPMI-8226 5.16 µM | IGROV-1 12.5 µM | SN12C 4.73 µM | CAKI-1 > 10 µM

O=C1N/C(=C\[N+](=O)[O-])c2ccccc21
inactive: Malme-3M > 100 µM | K562 > 100 µM | U-251 > 100 µM | UACC-62 > 100 µM | A549 > 100 µM | CCRF-CEM > 100 µM | HCC 2998 > 100 µM | OVCAR-3 > 100 µM | HOP-92 > 100 µM | NCI-H226 > 100 µM | MOLT-4 > 100 µM | ACHN > 100 µM | SK-MEL-5 > 100 µM | RPMI-8226 > 100 µM | IGROV-1 > 100 µM | SN12C > 100 µM | NCI-H23 > 100 µM

NC(=S)N/N=C1/C(=O)N(c2ccccc2)C(=O)C1C(=O)Nc1ccccc1 (stereo not drawn)
inactive: Malme-3M > 100 µM | U-251 > 100 µM | UACC-62 > 100 µM | A549 > 100 µM | HCC 2998 > 100 µM | OVCAR-3 > 100 µM | HOP-92 > 100 µM | NCI-H226 > 100 µM | MOLT-4 > 100 µM | ACHN > 100 µM | SK-MEL-5 > 100 µM | IGROV-1 > 100 µM | SN12C > 100 µM | NCI-H23 > 100 µM | CAKI-1 > 100 µM

COc1ccc(C2=C(Cl)c3cc(OC)c(OC)cc3C2Cl)cc1OC (stereo not drawn)
inactive: Malme-3M 19.6 µM | K562 10.8 µM | U-251 15.4 µM | UACC-62 15.4 µM | A549 19.5 µM | CCRF-CEM 4.32 µM | OVCAR-3 15.1 µM | HOP-92 24.8 µM | MOLT-4 3.82 µM | ACHN 16.6 µM | SK-MEL-5 14.6 µM | RPMI-8226 10.2 µM | IGROV-1 20.9 µM | SN12C 17.9 µM | NCI-H23 15.9 µM | CAKI-1 14.7 µM

NC(=O)CN(CC(N)=O)C(N)=O
inactive: Malme-3M > 100 µM | K562 > 100 µM | U-251 > 100 µM | UACC-62 > 100 µM | A549 > 100 µM | CCRF-CEM > 100 µM | OVCAR-3 > 100 µM | HOP-92 > 100 µM | NCI-H226 > 100 µM | MOLT-4 > 100 µM | ACHN > 100 µM | SK-MEL-5 > 100 µM | RPMI-8226 > 100 µM | IGROV-1 > 100 µM | NCI-H23 > 100 µM | CAKI-1 > 100 µM

O=C(NCCCN1CCN(CCCNC(=O)c2cnc3ccccc3n2)CC1)c1cnc2ccccc2n1
inactive: Malme-3M > 100 µM | K562 > 100 µM | U-251 > 100 µM | UACC-62 > 100 µM | A549 > 100 µM | CCRF-CEM > 100 µM | HCC 2998 > 100 µM | OVCAR-3 > 100 µM | NCI-H226 86.5 µM | MOLT-4 44.8 µM | ACHN 74.1 µM | SK-MEL-5 > 100 µM | RPMI-8226 > 100 µM | IGROV-1 > 100 µM | SN12C > 100 µM | CAKI-1 > 100 µM

COc1ccc(/C=C/C(=O)c2sc(NC(=S)NC(=O)c3ccc(Cl)cc3)nc2C)cc1OC
inactive: Malme-3M 37.2 µM | K562 27.4 µM | U-251 34.6 µM | UACC-62 18.4 µM | A549 43 µM | CCRF-CEM 26.2 µM | HCC 2998 > 100 µM | OVCAR-3 38.4 µM | NCI-H226 37.2 µM | MOLT-4 27.2 µM | ACHN 59.6 µM | RPMI-8226 24 µM | IGROV-1 43.1 µM | SN12C 36.6 µM | NCI-H23 33.5 µM | CAKI-1 75.9 µM

COc1ccc(C(C#N)NNc2nc(C)cc(O)n2)cc1OC (stereo not drawn)
inactive: Malme-3M > 100 µM | K562 > 100 µM | U-251 > 100 µM | UACC-62 > 100 µM | A549 > 100 µM | CCRF-CEM > 100 µM | OVCAR-3 > 100 µM | HOP-92 > 100 µM | NCI-H226 > 100 µM | MOLT-4 > 100 µM | ACHN > 100 µM | SK-MEL-5 > 100 µM | RPMI-8226 > 100 µM | IGROV-1 > 100 µM | SN12C > 100 µM | NCI-H23 > 100 µM | CAKI-1 > 100 µM

COc1cc(Br)c(C2OCCCO2)cc1OCc1ccccc1
inactive: K562 53.2 µM | U-251 > 100 µM | UACC-62 73.5 µM | A549 73.5 µM | CCRF-CEM 94.2 µM | OVCAR-3 47.2 µM | HOP-92 9.86 µM | NCI-H226 17.5 µM | MOLT-4 41.6 µM | ACHN 37.9 µM | SK-MEL-5 46.3 µM | RPMI-8226 52.8 µM | IGROV-1 > 100 µM | SN12C > 100 µM | NCI-H23 85.5 µM

CC(=O)O[C@H]1CCC2[C@@H]3CCC4Nc5c(cnn5-c5ccccc5)C[C@]4(C)C3CC[C@@]21C (stereo partly drawn)
inactive: Malme-3M 11.8 µM | K562 12.6 µM | U-251 17.9 µM | UACC-62 10.4 µM | A549 17.5 µM | CCRF-CEM 7.08 µM | HCC 2998 9.55 µM | OVCAR-3 6.92 µM | NCI-H226 11.5 µM | MOLT-4 6.93 µM | ACHN 14.6 µM | SK-MEL-5 7.94 µM | RPMI-8226 4.2 µM | IGROV-1 20.7 µM | SN12C 19.1 µM | NCI-H23 4.83 µM | CAKI-1 3.2 µM

CC(=O)N1c2ccccc2C2=CC3C4C(=O)N(c5ccccc5)C(=O)C4C21C1C(=O)N(c2ccccc2)C(=O)C31 (stereo not drawn)
inactive: Malme-3M 99.5 µM | K562 15.1 µM | U-251 13.9 µM | UACC-62 30.6 µM | A549 32.4 µM | CCRF-CEM 16.2 µM | HCC 2998 20.7 µM | HOP-92 > 100 µM | MOLT-4 30.8 µM | ACHN 31 µM | IGROV-1 75.7 µM | SN12C 42.7 µM | NCI-H23 48.2 µM | CAKI-1 48.3 µM

CN1CC(=O)N2Cc3ccccc3-n3cccc3C2C1 (stereo not drawn)
inactive: Malme-3M > 100 µM | U-251 > 100 µM | UACC-62 > 100 µM | A549 > 100 µM | HCC 2998 > 100 µM | OVCAR-3 > 100 µM | ACHN > 100 µM | SK-MEL-5 > 100 µM | IGROV-1 > 100 µM | SN12C > 100 µM | NCI-H23 > 100 µM | CAKI-1 > 100 µM

COc1ccc2c(c1)C(CCN)C(=O)N2 (stereo not drawn)
inactive: Malme-3M > 100 µM | K562 > 100 µM | U-251 > 100 µM | UACC-62 > 100 µM | A549 > 100 µM | CCRF-CEM > 100 µM | HCC 2998 > 100 µM | OVCAR-3 > 100 µM | HOP-92 > 100 µM | MOLT-4 > 100 µM | ACHN > 100 µM | SK-MEL-5 > 100 µM | RPMI-8226 > 100 µM | IGROV-1 > 100 µM | NCI-H23 > 100 µM | CAKI-1 > 100 µM
